Holding throughout (type): physicochemical
The nature of series [1]: Fading speed of poly(methyl methacrylate) cast film after mercury lamp irradiation, Example 9. The conditions noted are these: mercury lamp 60 seconds at 20°±1° C., time to half absorbance after irradiation stopped. The protocol:
The fading speeds of the cast films prepared as above were measured by the following procedure.
The cast film was exposed to a mercury lamp (SHL-100 made by Toshiba Co., Ltd.) at 20°±1° C. for 60 seconds from a distance of 10 cm. Then, the irradiation was stopped, and the fading speed was determined from changes in the absorbance of the cast film measured by a spectrophotometer (220A made by Hitachi Limited). The fading speed is expressed by the time which is required to the absorbance of the cast film to a value half of (the absorbance of the cast film at a maximum absorption wavelength immediately after 60 second irradiation)--(the absorbance of the non-irradiated cast film at the maximum wavelength) after light irradiation for 60 seconds.

Series [2] can be described thus: Xenon long-life fadeometer test of photochromic poly(methyl methacrylate) cast film (initial coloration density, T1/2, λmax), Example 9.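 As to Initial color density: 0.5 part by weight compound dispersed with PMMA in 100 parts benzene.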 The settings on record: poly(methyl methacrylate) cast film 0.1 mm; for Initial color density: initial coloration density (absorbance); for Initial color density / T1/2 (fatigue life): xenon fadeometer; for λmax: maximum absorption wavelength; for T1/2 (fatigue life): time for color density to decrease to half of initial value. An excerpt: The thickness of the cast film was adjusted to 0.1 mm.
(§1) T1/2 is defined as the time required for the color density to decrease to half of its initial value when the film is exposed to the fadeometer.

Series [3] in a line: Durability test of poly(allyl diglycol carbonate) lens impregnated with compound in silicone oil, Example 10. The conditions noted are these: for Initial color density / λmax: impregnated from silicone oil; for T1/2: impregnated from silicone oil at 200° C. for 1 hour, xenon fadeometer. As to the method:
as §1
The solution was impregnated in the surface of a lens composed of poly(allyl diglycol carbonate) at 200° C. for 1 hour. The concentration of the solution was adjusted to 1.0×10^-4 mole/g.

A short description of series [4]: Fatigue life of films of fulgimide or fulgide compounds with Cyasorb UV1084, Example 14. The conditions noted are these: with Cyasorb UV1084 (0.2 part) as ultraviolet stabilizer in poly(methyl methacrylate) film; xenon fadeometer.
A short description of series [5]: Fatigue life of film of fulgimide compound obtained in Example 1 with varied amounts of ultraviolet stabilizer, Example 13. The settings on record: fulgimide compound of Example 1. As to the method:
[…] The solution was cast on a slide glass (11.2×3.7cm) to form a cast film having a thickness of 0.1 mm.
(§2) The fatigue life of photochromic film was measured as in Example 9 by a xenon long-life fadeometer (FAL-25AX-HC made by Suga Testing Instrument Co., Ltd.).

The nature of series [6]: Fatigue life of film of fulgimide compound obtained in Example 2 with ultraviolet stabilizer, Example 12. The settings on record: fulgimide compound obtained in Example 2 (0.2 part) with 0.2 part ultraviolet stabilizer in poly(methyl methacrylate) film; xenon fadeometer. As to the method: (§3) One hundred parts of benzene, 10 parts of poly(methyl methacrylate), 0.2 part of the fulgimide compound obtained in Example 1 and 0.2 part of each of the compounds shown in Table 5 as an ultraviolet stabilizer were mixed to form a solution. The solution was cast on a slide glass (11.2×3.7cm) to form a cast film having a thickness of 0.1 mm.
as §2
Example 11 was repeated except that the fulgimide compound obtained in Example 2 was used instead of fulgimide compound used in Example 11.

A short description of series [7]: Fatigue life of film of fulgimide compound obtained in Example 1 with ultraviolet stabilizer, Example 11. The settings on record: fulgimide compound obtained in Example 1 (0.2 part) with 0.2 part ultraviolet stabilizer in poly(methyl methacrylate) film; xenon fadeometer.
Source text: as §1, §3, §2

Where [8] appears, read: stabilizer amount added 0.002 (1 part per 100 parts by weight of fulgimide).
[9] abbreviates: stabilizer amount added 0.1 (50 parts per 100 parts by weight of fulgimide).
Where [10] appears, read: stabilizer amount added 0.8 (400 parts per 100 parts by weight of fulgimide).
The mark [11] stands for this setting: stabilizer amount added 20 (10000 parts per 100 parts by weight of fulgimide).

This is an account of results in US4960678A, “Photochromic compounds” (Tokuyama Soda Kabushiki Kaisha, priority 1987, dated 1990).

The molecule `COC(=O)CN1C(=O)C2=C(C)c3ccsc3C3(C4CC5CC(C4)CC3C5)C2C1=O` (stereo not drawn) [(1)] showed a Fading speed in series [1] of 39 s. Further, in series [2], the Initial color density worked out at 0.62, the λmax is reported as 535 nm and the “T1/2 (fatigue life)” value amounted to 38 h. Besides, in series [3], the Initial color density was 0.5, the λmax is 540 nm and the T1/2 is 40 h.
On to `CCC(C(=O)OCCc1ccc2ccccc2c1)N1C(=O)C2=C(C)c3ccsc3C3(C4CC5CC(C4)CC3C5)C2C1=O` (stereo not drawn) [(5)], for which, in series [1], the Fading speed was found to be 58 s. Besides, in series [2], the Initial color density came to 0.51, the λmax is on record as 520 nm and the “T1/2 (fatigue life)” value came to 24 h. In series [3], the Initial color density was 0.4, the λmax is 520 nm and the T1/2 is 31 h.
Regarding `CC1=C2C(=O)OC(=O)C2C2(CC3CCC2C3)c2sc(Br)cc21` (stereo not drawn) [(7)], the Fading speed in series [1] worked out at 21 s. Further, in series [2], the Initial color density was 0.38, the λmax turned out to be 520 nm and the “T1/2 (fatigue life)” value is 15 h.
With `CC1=C2C(=O)N(C[N+](=O)[O-])C(=O)C2C2(c3sc(C)cc31)C1CC3CC(C1)CC2C3` (stereo not drawn) [(8)], in series [2], the Initial color density was determined as 0.72, the λmax stood at 556 nm and the “T1/2 (fatigue life)” value stood at 30 h. For the same molecule, in series [3], the Initial color density was 0.56, the λmax was 562 nm and the T1/2 was 32 h.
For the molecule `COc1ccc2c3c(sc2c1)C1(C2CC4CC(C2)CC1C4)C1C(=O)N(CCl)C(=O)C1=C3C` (stereo not drawn) [(9)], in series [2], the Initial color density came out at 0.59, the λmax turned out to be 542 nm and the “T1/2 (fatigue life)” value came out at 30 h.
In the case of `CC(=O)CN1C(=O)C2=C(c3ccccc3)c3cc(-c4ccccc4)sc3C3(C4CC5CC(C4)CC3C5)C2C1=O` (stereo not drawn) [(10)], in series [2], the Initial color density was found to be 0.58, the λmax was 601 nm and the “T1/2 (fatigue life)” value was 40 h. Besides, in series [3], the Initial color density is 0.47, the λmax is 610 nm and the T1/2 was 43 h.
Take `CNC(=O)CN1C(=O)C2=C(C)c3cc([N+](=O)[O-])sc3C3(C4CC5CC(C4)CC3C5)C2C1=O` (stereo not drawn) [(11)]: in series [2], the Initial color density was 0.61, the λmax is 525 nm and the “T1/2 (fatigue life)” value was 39 h.
With `COC(=O)C(C)N1C(=O)C2=C(c3ccccc3)c3ccoc3C3(C4CC5CC3CC(Cl)(C5)C4)C2C1=O` (stereo not drawn) [(12)], the T1/2 in series [4] was 160 h. For the same molecule, in series [2], the Initial color density was 0.79, the λmax is recorded as 560 nm and the “T1/2 (fatigue life)” value stood at 31 h.
For the molecule `COC12CC3CC(C1)C1(c4oc5ccccc5c4C(C)=C4C(=O)N(CC(=O)OC(C)(C)CCC#N)C(=O)C41)C(C3)C2` (stereo not drawn) [(14)], in series [2], the Initial color density came to 0.82, the λmax came out at 490 nm and the “T1/2 (fatigue life)” value turned out to be 42 h. Besides, in series [3], the Initial color density was 0.63, the λmax is 500 nm and the T1/2 was 42 h.
As to `COCCOCN1C(=O)C2=C(C)c3c(oc4ccccc34)C3(C4CC5CC(F)(C4)CC3(F)C5)C2C1=O` (stereo not drawn) [(16)], in series [2], the Initial color density worked out at 0.84, the λmax worked out at 492 nm and the “T1/2 (fatigue life)” value amounted to 31 h.
As for `CCC1=C2C(=O)N(CC(=O)CCC(=O)CCl)C(=O)C2C2(c3c1sc1ccccc31)C1(F)C(F)(F)C3(F)C(F)(F)C(F)(C1(F)F)C(F)(F)C2(F)C3(F)F` (stereo not drawn) [(18)], in series [2], the Initial color density is 0.52, the λmax is on record as 519 nm and the “T1/2 (fatigue life)” value is 41 h.
Taken in the same sequence, the figures for `CC1=C2C(=O)N(CC(=O)OCC(C)C)C(=O)C2C2(CC3CCC2C3)c2sc(Br)cc21` (stereo not drawn) [(19)] were 0.47, 520 nm and 43 h.
Turning to `CCCCC1=C2C(=O)N(CC(C)(C)CCOC(=O)CBr)C(=O)C2C2(CC3CCC2C3(C)C)c2sc3c(c21)CCCC3` (stereo not drawn) [(21)], in series [2], the Initial color density worked out at 0.52, the λmax came to 576 nm and the “T1/2 (fatigue life)” value came to 36 h.
In the case of `CC1=C2C(=O)N(CC#N)C(=O)C2C2(c3occc31)C1CC3CC(C1)CC2C3` (stereo not drawn) [(28)], in series [2], the Initial color density was 0.9, the λmax worked out at 535 nm and the “T1/2 (fatigue life)” value came out at 48 h. In series [3], the Initial color density is 0.72, the λmax is reported as 540 nm and the T1/2 is 49 h.
In the case of `CCCCC12CC3CC(C1)C1(c4c(n(C)c5ccccc45)C(C)=C4C(=O)N(CC(=O)OCCC#N)C(=O)C41)C(Cl)(C3)C2` (stereo not drawn) [(29)], in series [2], the Initial color density stood at 0.71, the λmax amounted to 576 nm and the “T1/2 (fatigue life)” value is 44 h. Besides, in series [3], the Initial color density is 0.56, the λmax was 583 nm and the T1/2 is 45 h.
`CCn1c2c(c3ccccc31)C(C)=C1C(=O)OC(=O)C1C21C2CCC(C2)C1(C)C` (stereo not drawn) [(94)]: in series [2], the Initial color density is 0.49, the λmax is given as 546 nm and the “T1/2 (fatigue life)” value was determined as 12 h.
`CC1=C2C(=O)OC(=O)C2C2(CC3CCC2(C)C3(C)C)c2sc(C)cc21` (stereo not drawn) [(95)]: in series [2], the Initial color density turned out to be 0.53, the λmax turned out to be 540 nm and the “T1/2 (fatigue life)” value was 11 h.
For `CC1=C2C(=O)N(c3ccccc3)C(=O)C2C2(CC3CCC2C3)c2sc(Br)cc21` (stereo not drawn) [(97)], in series [2], the Initial color density is 0.31, the λmax came out at 506 nm and the “T1/2 (fatigue life)” value amounted to 8 h.
With `CC1=C2C(=O)N(c3ccc(C)cc3)C(=O)C2C2(CC3CCC2C3)c2sc3ccccc3c21` (stereo not drawn) [(98)], in series [2], the λmax is on record as 513 nm and the “T1/2 (fatigue life)” value amounted to 11 h.
With `CCN1C(=O)C2=C(C)c3cc(OC)c(OC)c(OC)c3C3(CC4CCC3C4)C2C1=O` (stereo not drawn) [(99)], in series [2], the Initial color density came out at 0.24, the λmax came out at 510 nm and the “T1/2 (fatigue life)” value amounted to 8 h.
Taken in the same sequence, the figures for `CCN1C(=O)C2=C(C)c3ccsc3C3(C4CC5CC(C4)CC3C5)C2C1=O` (stereo not drawn) [(X), reference compound] were 0.7, 530 nm and 3 h.
Consider `CC(C)(C)CC(C)(C)c1ccc([O-])c(Sc2cc(C(C)(C)CC(C)(C)C)ccc2[O-])c1.CCCCN.[Ni+2]` [Cyasorb UV1084], for which the T1/2 in series [5] (setting [8]) amounted to 110 h; in series [5] (setting [9]), 140 h; in series [5] (setting [10]) it was 160 h; in series [5] (setting [11]) it was 180 h; in series [6] it was 182 h; in series [7] it was 152 h.
As for `CCOP(=O)([O-])Cc1cc(C(C)(C)C)c(O)c(C(C)(C)C)c1.CCOP(=O)([O-])Cc1cc(C(C)(C)C)c(O)c(C(C)(C)C)c1.[Ni+2]` [Irgastab 2002], the figures for the T1/2 in series [6] and in series [7] were 176 h and 147 h, respectively.
`CCCCN(CCCC)C(=S)[S-].CCCCN(CCCC)C(=S)[S-].[Ni+2]` [Rylex NBC]: the T1/2 came out at 190 h in series [6] and 158 h in series [7].
As to `CCCCC(Cc1cc(C(C)(C)C)c(O)c(C(C)(C)C)c1)(C(=O)OC1CC(C)(C)N(C)C(C)(C)C1)C(=O)OC1CC(C)(C)N(C)C(C)(C)C1` [Tinuvin 144], the T1/2 in series [6] was 182 h; in series [7], 152 h.
Regarding `CN1C(C)(C)CC(OC(=O)CCCCCCCCC(=O)OC2CC(C)(C)N(C)C(C)(C)C2)CC1(C)C` [Tinuvin 765], the T1/2 in series [5] (setting [8]) was 106 h; in series [5] (setting [9]), 152 h; in series [5] (setting [10]), 166 h; in series [5] (setting [11]) it was 182 h; in series [6] it was 191 h; in series [7], 159 h.
